Reference: EP0238060B1, “Cephalosporin derivatives, processes for their preparation and antibacterial agents” (Banyu Pharmaceutical Co., Ltd., priority 1986, dated 1987)
Values after ≈ are worked out from the molar mass of the structure shown. Where two headings read alike, the source gives them in different places.

Experiments:
Assay in all cases: In vitro antibacterial activity, agar plate dilution method (MIC)
Ps.cepacia 23 = type: cell-based, Pseudomonas cepacia; conditions: Burkholderia cepacia; Ps.cepacia 23; Mueller Hinton agar, inoculum 10⁶ CFU/ml, 37°C, 16 hours; read-out: Minimum Inhibitory Concentration (MIC: µg/ml)
Procedure: (§1) The in vitro antibacterial activities of the compounds of the present invention against various microorganisms, were measured by the following agar plate dilution method. One platinum loopfull of each test microorganism incubated overnight in Mueller Hinton broth, was inoculated to Mueller Hinton agar (inoculum size: l0⁶ CFU/ml). Such culture media containing various antibiotics in various concentrations were prepared. After incubation at 37°C for l6 hours, the minimum inhibitory concentrations (MIC: µg/ml) were measured. As comparative compounds, Cefotaxime, Ceftazidime and the compounds of Reference Examples l to 4 were employed.

C.freundii GN346 = type: cell-based; conditions: Citrobacter freundii; C.freundii GN346 (β-Lactamase-producing strain); Mueller Hinton agar, inoculum 10⁶ CFU/ml, 37°C, 16 hours; read-out: Minimum Inhibitory Concentration (MIC: µg/ml)
Procedure: as §1

Ps.aeruginosa AKR17 = type: cell-based; conditions: Pseudomonas aeruginosa; Ps.aeruginosa AKR17; Mueller Hinton agar, inoculum 10⁶ CFU/ml, 37°C, 16 hours; read-out: Minimum Inhibitory Concentration (MIC: µg/ml)
Procedure: as §1

S.aureus BB5703 = type: cell-based; conditions: Staphylococcus aureus; S.aureus BB5703; Mueller Hinton agar, inoculum 10⁶ CFU/ml, 37°C, 16 hours; read-out: Minimum Inhibitory Concentration (MIC: µg/ml)
Procedure: as §1

E.coli GN5482 = type: cell-based; conditions: Escherichia coli; E.coli GN5482 (β-Lactamase-producing strain); Mueller Hinton agar, inoculum 10⁶ CFU/ml, 37°C, 16 hours; read-out: Minimum Inhibitory Concentration (MIC: µg/ml)
Procedure: as §1

C.freundii GN346/16 = type: cell-based; conditions: Citrobacter freundii; C.freundii GN346/16; Mueller Hinton agar, inoculum 10⁶ CFU/ml, 37°C, 16 hours; read-out: Minimum Inhibitory Concentration (MIC: µg/ml)
Procedure: as §1

S.aureus JS1 = type: cell-based; conditions: Staphylococcus aureus; S.aureus JS1 (β-Lactamase-producing strain); Mueller Hinton agar, inoculum 10⁶ CFU/ml, 37°C, 16 hours; read-out: Minimum Inhibitory Concentration (MIC: µg/ml)
Procedure: as §1

Ps.aeruginosa AK 109 = type: cell-based; conditions: Pseudomonas aeruginosa, AK109; Ps.aeruginosa AK 109; Mueller Hinton agar, inoculum 10⁶ CFU/ml, 37°C, 16 hours; read-out: Minimum Inhibitory Concentration (MIC: µg/ml)
Procedure: as §1

M.morganii GN5407 = type: cell-based; conditions: Morganella morganii; M.morganii GN5407 (β-Lactamase-producing strain); Mueller Hinton agar, inoculum 10⁶ CFU/ml, 37°C, 16 hours; read-out: Minimum Inhibitory Concentration (MIC: µg/ml)
Procedure: as §1

P.vulgaris HX-19 = type: cell-based; conditions: Proteus vulgaris, HX19; P.vulgaris HX-19; Mueller Hinton agar, inoculum 10⁶ CFU/ml, 37°C, 16 hours; read-out: Minimum Inhibitory Concentration (MIC: µg/ml)
Procedure: as §1

E.cloacae 963 = type: cell-based; conditions: Enterobacter cloacae; E.cloacae 963; Mueller Hinton agar, inoculum 10⁶ CFU/ml, 37°C, 16 hours; read-out: Minimum Inhibitory Concentration (MIC: µg/ml)
Procedure: as §1

K.pneumoniae PCI-602 = type: cell-based; conditions: Klebsiella pneumoniae, PCI602; K.pneumoniae PCI-602; Mueller Hinton agar, inoculum 10⁶ CFU/ml, 37°C, 16 hours; read-out: Minimum Inhibitory Concentration (MIC: µg/ml)
Procedure: as §1

S.marcescens IAM 1184 = type: cell-based; conditions: Serratia marcescens, IAM1184; S.marcescens IAM 1184; Mueller Hinton agar, inoculum 10⁶ CFU/ml, 37°C, 16 hours; read-out: Minimum Inhibitory Concentration (MIC: µg/ml)
Procedure: as §1

S.marcescens No. 16-2 = type: cell-based; conditions: Serratia marcescens, NO.162; S.marcescens No. 16-2 (β-Lactamase-producing strain); Mueller Hinton agar, inoculum 10⁶ CFU/ml, 37°C, 16 hours; read-out: Minimum Inhibitory Concentration (MIC: µg/ml)
Procedure: as §1

E.coli CSH2 (RK1) = type: cell-based; conditions: Escherichia coli, 16 h, read-out: Minimum Inhibitory Concentration (MIC: µg/ml)
Procedure: as §1

K.pneumoniae No. 42 = type: cell-based; conditions: Klebsiella pneumoniae; K.pneumoniae No. 42 (β-Lactamase-producing strain); Mueller Hinton agar, inoculum 10⁶ CFU/ml, 37°C, 16 hours; read-out: Minimum Inhibitory Concentration (MIC: µg/ml)
Procedure: as §1

E.coli NIHJ JC2 = type: cell-based; conditions: Escherichia coli, NIHJJC2; E.coli NIHJ JC2; Mueller Hinton agar, inoculum 10⁶ CFU/ml, 37°C, 16 hours; read-out: Minimum Inhibitory Concentration (MIC: µg/ml)
Procedure: as §1

E.cloacae Nek 39 = type: cell-based; conditions: Enterobacter cloacae, NEK39; E.cloacae Nek 39 (β-Lactamase-producing strain); Mueller Hinton agar, inoculum 10⁶ CFU/ml, 37°C, 16 hours; read-out: Minimum Inhibitory Concentration (MIC: µg/ml)
Procedure: as §1

A.calcoaceticus No. 4 = type: cell-based; conditions: Acinetobacter calcoaceticus; A.calcoaceticus No. 4; Mueller Hinton agar, inoculum 10⁶ CFU/ml, 37°C, 16 hours; read-out: Minimum Inhibitory Concentration (MIC: µg/ml)
Procedure: as §1

S.aureus 209P NIHJ-JC1 = type: cell-based; conditions: Staphylococcus aureus; S.aureus 209P NIHJ-JC1; Mueller Hinton agar, inoculum 10⁶ CFU/ml, 37°C, 16 hours; read-out: Minimum Inhibitory Concentration (MIC: µg/ml)
Procedure: as §1

E.coli CSH(RE45) = type: cell-based; conditions: Escherichia coli, 16 h, read-out: Minimum Inhibitory Concentration (MIC: µg/ml)
Procedure: as §1

K.oxytoca GN10650 = type: cell-based; conditions: Klebsiella oxytoca, read-out: Minimum Inhibitory Concentration (MIC: µg/ml)
Procedure: as §1

S.epidermidis IAM12012 = type: cell-based; conditions: Staphylococcus epidermidis; S.epidermidis IAM12012; Mueller Hinton agar, inoculum 10⁶ CFU/ml, 37°C, 16 hours; read-out: Minimum Inhibitory Concentration (MIC: µg/ml)
Procedure: as §1

P.vulgaris No. 33 = type: cell-based; conditions: Proteus vulgaris, read-out: Minimum Inhibitory Concentration (MIC: µg/ml)
Procedure: as §1

Ps.aeruginosa IFO3445 = type: cell-based; conditions: Pseudomonas aeruginosa; Ps.aeruginosa IFO3445; Mueller Hinton agar, inoculum 10⁶ CFU/ml, 37°C, 16 hours; read-out: Minimum Inhibitory Concentration (MIC: µg/ml)
Procedure: as §1

M.luteus ATCC9341 = type: cell-based; conditions: Micrococcus luteus; M.luteus ATCC9341; Mueller Hinton agar, inoculum 10⁶ CFU/ml, 37°C, 16 hours; read-out: Minimum Inhibitory Concentration (MIC: µg/ml)
Procedure: as §1

Ps.maltophilia GN 12873 = type: cell-based, Pseudomonas maltophilia; conditions: Stenotrophomonas maltophilia, GN12873; Ps.maltophilia GN 12873 (β-Lactamase-producing strain); Mueller Hinton agar, inoculum 10⁶ CFU/ml, 37°C, 16 hours; read-out: Minimum Inhibitory Concentration (MIC: µg/ml)
Procedure: as §1

Row | SMILES | MIC (Ps.cepacia 23) | MIC (C.freundii GN346) | MIC (Ps.aeruginosa AKR17) | MIC (S.aureus BB5703) | MIC (E.coli GN5482) | MIC (C.freundii GN346/16) | MIC (S.aureus JS1) | MIC (Ps.aeruginosa AK 109) | MIC (M.morganii GN5407) | MIC (P.vulgaris HX-19) | MIC (E.cloacae 963) | MIC (K.pneumoniae PCI-602) | MIC (S.marcescens IAM 1184) | MIC (S.marcescens No. 16-2) | MIC (E.coli CSH2 (RK1)) | MIC (K.pneumoniae No. 42) | MIC (E.coli NIHJ JC2) | MIC (E.cloacae Nek 39) | MIC (A.calcoaceticus No. 4) | MIC (S.aureus 209P NIHJ-JC1) | other results
1 | Nc1nc(/C(=N/OC2(C(=O)O)CCCC2)C(=O)NC2C(=O)N3C(C(=O)[O-])=C(C[n+]4ccc5cc(O)c(O)cc5c4)CSC23)cs1 (stereo not drawn) [Ex. 5, 7-[2-(2-aminothiazol-4-yl)-2-(l-carboxy-l-cyclopentyloxyimino)acetamido]-3-(6,7-dihydroxy-2-isoquinolinio)methyl-3-cephem-4-carboxylate] | < 0.006 µg/mL | 50 µg/mL (≈ 76.4 µM) | 0.39 µg/mL (≈ 0.596 µM) | 50 µg/mL (≈ 76.4 µM) | 0.2 µg/mL (≈ 0.305 µM) | 1.56 µg/mL (≈ 2.38 µM) | 100 µg/mL (≈ 153 µM) | 0.39 µg/mL (≈ 0.596 µM) | 0.1 µg/mL (≈ 0.153 µM) | < 0.006 µg/mL | 0.05 µg/mL (≈ 0.0764 µM) | < 0.006 µg/mL | < 0.006 µg/mL | 0.1 µg/mL (≈ 0.153 µM) | 0.0125 µg/mL (≈ 0.0191 µM) | 0.05 µg/mL (≈ 0.0764 µM) | 0.05 µg/mL (≈ 0.0764 µM) | < 0.006 µg/mL | 0.1 µg/mL (≈ 0.153 µM) | 25 µg/mL (≈ 38.2 µM) | MIC (E.coli CSH(RE45)): 0.78 µg/mL (≈ 1.19 µM); MIC (K.oxytoca GN10650; GN10650, 16 h): 0.0125 µg/mL (≈ 0.0191 µM); MIC (S.epidermidis IAM12012): 6.25 µg/mL (≈ 9.55 µM); MIC (P.vulgaris No. 33; NO.33, 16 h): 0.0125 µg/mL (≈ 0.0191 µM); MIC (Ps.aeruginosa IFO3445): 0.39 µg/mL (≈ 0.596 µM); MIC (M.luteus ATCC9341): 3.12 µg/mL (≈ 4.77 µM); MIC (Ps.maltophilia GN 12873): 1.56 µg/mL (≈ 2.38 µM)
2 | CC(C)ON=C(C(=O)NC1C(=O)N2C(C(=O)[O-])=C(C[n+]3ccc4cc(O)c(O)cc4c3)CS[C@H]12)c1csc(N)n1 (stereo partly drawn) [Ex. 2, 7-[2-(2-aminothiazol-4-yl)-2-isopropoxyiminoacetamido]-3-(6,7-dihydroxy-2-isoquinolinio)methyl-3-cephem-4-carboxylate] | 0.1 µg/mL (≈ 0.171 µM) | 50 µg/mL (≈ 85.5 µM) | 25 µg/mL (≈ 42.8 µM) | 6.25 µg/mL (≈ 10.7 µM) | 0.39 µg/mL (≈ 0.667 µM) | 0.78 µg/mL (≈ 1.33 µM) | 12.5 µg/mL (≈ 21.4 µM) | 0.78 µg/mL (≈ 1.33 µM) | 0.05 µg/mL (≈ 0.0855 µM) | < 0.006 µg/mL | 0.025 µg/mL (≈ 0.0428 µM) | < 0.006 µg/mL | 0.0125 µg/mL (≈ 0.0214 µM) | 0.78 µg/mL (≈ 1.33 µM) | < 0.006 µg/mL | 0.025 µg/mL (≈ 0.0428 µM) | 0.1 µg/mL (≈ 0.171 µM) | 0.05 µg/mL (≈ 0.0855 µM) | 0.2 µg/mL (≈ 0.342 µM) | 1.56 µg/mL (≈ 2.67 µM) | MIC (E.coli CSH(RE45)): 0.39 µg/mL (≈ 0.667 µM); MIC (K.oxytoca GN10650; K.oxytoca GN10650 (β-Lactamase-producing strain), Mueller Hinton agar, inoculum 10⁶ CFU/ml, 37°C, 16 hours): 0.39 µg/mL (≈ 0.667 µM); MIC (S.epidermidis IAM12012): 0.78 µg/mL (≈ 1.33 µM); MIC (P.vulgaris No. 33; P.vulgaris No. 33 (β-Lactamase-producing strain), Mueller Hinton agar, inoculum 10⁶ CFU/ml, 37°C, 16 hours): 0.05 µg/mL (≈ 0.0855 µM); MIC (Ps.aeruginosa IFO3445): 0.78 µg/mL (≈ 1.33 µM); MIC (M.luteus ATCC9341): 0.1 µg/mL (≈ 0.171 µM); MIC (Ps.maltophilia GN 12873): 100 µg/mL (≈ 171 µM)
